Measured values from patent publication US20150045266A1, “IONIC LIQUID AS LUBRICATING OIL BASE STOCKS, COBASE STOCKS AND MULTIFUNCTIONAL FUNCTIONAL FLUIDS” (ExxonMobil Research and Engineering Company, priority 2012, published 2015).

Assay: Solubility in di(tridecyl) adipate ester base stock (Esterex A51)
Type: physicochemical
Conditions: Group V ester base stock
Source text: The ionic liquids of Examples 5, 7, 9, 11 and 13 have good viscosity index.

Solubility in di(tridecyl) adipate ester base stocks, highly soluble:
CCCCCCCCCCn1cc[n+](C)c1 [Example 5, 1-methyl-3-decylimidazolium bis(trifluoromethanesulfonyl)imide]
CCCCCCCCCCCCCCCCn1cc[n+](C)c1 [Example 7, 1-methyl-3-hexadecylimidazolium bis(trifluoromethanesulfonyl)imide]
CCCCCCCCCC[n+]1ccn(CCCC)c1 [Example 9, 1-butyl-3-decylimidazolium bis(trifluoromethanesulfonyl)imide]
CCCCCCCCCCCCCCCC[n+]1ccn(CCCC)c1 [Example 11, 1-butyl-3-hexadecylimidazolium bis(trifluoromethanesulfonyl)imide]
CCCCCCCCCC[n+]1ccn(Cc2ccccc2)c1 [Example 13, 1-benzyl-3-decylimidazolium bis(trifluoromethanesulfonyl)imide]
